Our source for the stabil values is patent EP1068346B1, “NUCLEOTIDE ACTIVATED DISACCHARIDES AND OLIGOSACCHARIDES AND METHOD FOR THE PRODUCTION THEREOF” (Forschungszentrum Jülich GmbH, priority 1998, dated 1999).

The format of the data set is physicochemical. The protocol:
Insgesamt wurden 4.21 mg UDP-LacNAc isoliert (Gesamtausbeute: 5.2%). Die Substanz ist mindestens 6 Monate bei -20°C stabil. UDP-LacNAc wurde durch NMR-Spektroskopie und Massenspektrometrie charakterisiert. (Fig.1-4)

As for Gal(β1-4)GlcNAc(α1-UDP [UDP-LacNAc], the stabil is on record as at least 6 Monate.
